# Source: patent US9387198B1 (priority 2015, dated 2016)
# Legend:
# [1] = Cytotoxicity evaluation by MTT-assay; details: mouse, mouse fibroblast (3T3) cells
# Method: (§1) Cytotoxicity evaluation was also carried out against mouse fibroblast (3T3) cell-line by employing MTT-assay.
# [2] = molecular target: T1, human serum albumin (HSA) (Homo sapiens, UniProt P02768); assay: Fluorescence-based anti-glycation assay (fructose-mediated glycation of HSA); type: biochemical; details: compared to reference compound rutin
# T1 construct: purchased Sigma Aldrich, St. Louis, Mo., USA
# Method: Prior to incubation, rutin (reference compound) and 6-nitrobenzimidazole derivatives were added to a reaction mixture to a final concentration of 1 mM. DMSO was used as a solvent (final concentration: 10%) in this assay.
# Percentage Inhibition=(1−Fluorescence of test compounds/Fluorescence of glycated-HSA)×100 Where, Test compounds=6-Nitrobenzimidazole derivatives
# in vitro = details: mouse
# Method: as §1
# [3] = test system: rat hepatocytes (CC1-Cell line); assay: Fructose-derived AGE-induced intracellular ROS production (DCFH-DA technique); type: cell-based; details: for effect on ROS production (in words): AGE 200 μg/mL; for Fluorescence (Average), AGE-mediated intracellular ROS production: co-incubated with AGEs 200 μg/mL, 24 hours
# Method: Procedure of the Assay: Briefly, 6×10^4 cells/mL cells (normal rat hepatocytes: CC1-Cell line) were seeded on a 96-well plate and kept for 24 hours in an incubator, containing 5% CO2 at 37° C. […] Initially the cells were incubated with 10 μM DCFH-DA non fluorescent probe, for 45 mins in the dark environment. […] The control was treated with 0.5% H2O2 just before 1 hour prior to halt the incubation period.
# Detection of Fluorescence Intensity: The intensity of fluorescence was measured at an excitation 490 nm and an emission 520 nm, using Spectra Max Spectrophotometer (Applied Biosystems, CA, USA).
# Where, Blank=Normal rat hepatocytes Control=Rat hepatocytes treated with 0.5% […] Test compound=6-Nitrobenzimidazole derivative
# [4] = test system: rat hepatocytes (CC1-Cell line); assay: Fructose-derived AGE-mediated diminished growth of hepatocytes (MTT assay); type: cell-based; details: for effect on hepatocytes growth and proliferation (in words) / Percentage Inhibition (remaining growth inhibition of hepatocytes versus normal cells): AGEs 200 μg/mL; for Percentage Inhibition (remaining growth inhibition of hepatocytes versus normal cells): lower = more growth restored; for Absorbance (Average), AGE-mediated diminished growth of the hepatocytes: co-incubated with AGEs 200 μg/mL, 540 nm
# Method: The mixture was incubated at 37° C. for 12 weeks under dark sterile environment. […] The cells treated with Triton X-100 were used as a blank, while normal cells remain untreated were used as a control.
# MTT Assay: Following 24 hours of incubation, the plate was decanted to remove the medium and the cells were washed with 1×PBS. The MTT-dye (50 μL: 2 mg/mL) was then loaded to each well. 200 μL (final reaction volume) was reconstituted by serum free-MEM (Minimum essential media) in a dark environment. The plate was incubated in 5% CO2 containing incubator at 37° C. for the next 4 hours. At the end of the incubation, the medium was removed and the crystals were dissolved by adding 100 μL DMSO into each well.
# Measurement of Absorbance: The intensity of purple colored solution was measured at the wavelength of 540 nm, using Spectra Max Spectrophotometer (Applied Biosystems, CA, USA).
# Where, Blank=Triton X-100 treated rat hepatocytes Control=Normal rat hepatocytes Test Compound=6-nitrobenzimidazole derivatives
# [5] = Rattus norvegicus, Hepatocyte, 24 h, read-out: Percentage Inhibition of AGE-mediated intracellular ROS production
# T1 sequence (P02768 25-609): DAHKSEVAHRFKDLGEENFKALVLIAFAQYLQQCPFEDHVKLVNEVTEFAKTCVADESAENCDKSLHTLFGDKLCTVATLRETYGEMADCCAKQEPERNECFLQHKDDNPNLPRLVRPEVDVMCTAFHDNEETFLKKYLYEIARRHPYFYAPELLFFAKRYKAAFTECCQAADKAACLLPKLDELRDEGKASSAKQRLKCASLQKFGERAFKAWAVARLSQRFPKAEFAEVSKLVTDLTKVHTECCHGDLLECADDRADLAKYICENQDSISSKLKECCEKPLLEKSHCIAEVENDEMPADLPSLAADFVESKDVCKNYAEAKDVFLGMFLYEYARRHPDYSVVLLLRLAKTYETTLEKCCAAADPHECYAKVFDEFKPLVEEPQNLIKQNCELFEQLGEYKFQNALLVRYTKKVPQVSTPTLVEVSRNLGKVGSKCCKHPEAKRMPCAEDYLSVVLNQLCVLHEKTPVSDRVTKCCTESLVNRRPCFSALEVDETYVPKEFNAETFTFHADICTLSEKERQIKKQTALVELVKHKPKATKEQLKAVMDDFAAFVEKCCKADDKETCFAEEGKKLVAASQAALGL
compound,measurement,setting,value
"O=[N+]([O-])c1ccc2nc(-c3c(O)cc(O)cc3O)[nH]c2c1 [Compound 5, 2-(6-Nitro-1H-benzimidazol-2-yl)-1,3,5-benzenetriol]",cytotoxicity,[1],4%
"O=[N+]([O-])c1ccc2nc(-c3ccc(O)cc3)[nH]c2c1 [Compound 10, 4-(6-Nitro-1H-benzimidazol-2-yl) phenol]",cytotoxicity,[1],3.6%
"O=[N+]([O-])c1ccc2nc(-c3cccc(O)c3O)[nH]c2c1 [Compound 1, 3-(6-Nitro-1H-benzimidazol-2-yl)-1,2-benzenediol]",anti-glycation activity (in words),[2],significant anti-glycation activity
same,cytotoxicity,[1],35.9%
"O=[N+]([O-])c1ccc2nc(-c3ccsc3)[nH]c2c1 [Compound 3, 6-Nitro-2-(3-thienyl)-1H-benzimidazole]",cytotoxicity,[1],19.7%
"O=[N+]([O-])c1ccc(-c2nc3cc([N+](=O)[O-])ccc3[nH]2)cc1 [Compound 9, 6-Nitro-2-(4-nitrophenyl)-1H-benzimidazole]",cytotoxicity,[1],45.2%
"O=[N+]([O-])c1ccc2nc(-c3ccc(O)cc3O)[nH]c2c1 [Compound 7, 4-(6-Nitro-1H-benzimidazol-2-yl)-1,3-benzenediol]",anti-glycation activity (in words),[2],significant anti-glycation activity
same,cytotoxicity,in vitro,37.4%
"Cc1ccc(-c2nc3cc([N+](=O)[O-])ccc3[nH]2)cc1 [Compound 8, 2-(4-Methylphenyl)-6-nitro-1H-benzimidazole]",cytotoxicity,[1],59.2%
"O=[N+]([O-])c1ccc2nc(-c3ccc(O)c(O)c3O)[nH]c2c1 [Compound 4, 4-(6-Nitro-1H-benzimidazol-2-yl)-1,2,3-benzenetriol]",anti-glycation activity (in words),[2],significant anti-glycation activity
same,inhibition at 24 µM,[3]; [5],63.6%
same,inhibition at 33 µM,[3]; [5],89.2%
same,inhibition at 49 µM,[3]; [5],93.4%
same,effect on ROS production (in words),[3]; compound 24 μM,moderate activity against ROS production
same,"Fluorescence (Average), AGE-mediated intracellular ROS production",[3]; compound 24 μM,138.8
same,effect on ROS production (in words),[3]; compound 33 μM,significantly impaired the ROS production
same,"Fluorescence (Average), AGE-mediated intracellular ROS production",[3]; compound 33 μM,97.5
same,effect on ROS production (in words),[3]; compound 49 μM,inhibited the AGE-induced ROS production in rat hepatocytes in a remarkably significant manner
same,"Fluorescence (Average), AGE-mediated intracellular ROS production",[3]; compound 49 μM,90.7
same,effect on hepatocytes growth and proliferation (in words),[4]; compound 24 μM,significant effect on the growth and proliferation
same,Percentage Inhibition (remaining growth inhibition of hepatocytes versus normal cells),"[4]; compound 24 μM, 24 hours",35.8%
same,"Absorbance (Average), AGE-mediated diminished growth of the hepatocytes","[4]; compound 24 μM, 24 hours",0.91
same,effect on hepatocytes growth and proliferation (in words),"[4]; compound 33 μM, 24 hours",significantly restored the growth and proliferation
same,Percentage Inhibition (remaining growth inhibition of hepatocytes versus normal cells),"[4]; compound 33 μM, 24 hours",34.3%
same,"Absorbance (Average), AGE-mediated diminished growth of the hepatocytes","[4]; compound 33 μM, 24 hours",0.93
same,effect on hepatocytes growth and proliferation (in words),[4]; compound 49 μM,as effective as 33 μM concentration in reducing the toxicity of AGEs
same,Percentage Inhibition (remaining growth inhibition of hepatocytes versus normal cells),"[4]; compound 49 μM, 24 hours",22.2%
same,"Absorbance (Average), AGE-mediated diminished growth of the hepatocytes","[4]; compound 49 μM, 24 hours",1.05
same,cytotoxicity,[1],9.8%
"O=[N+]([O-])c1ccc2nc(-c3cc(O)ccc3O)[nH]c2c1 [Compound 2, 2-(6-Nitro-1H-benzimidazol-2-yl)-1,4-benzenediol]",anti-glycation activity (in words),[2],significant anti-glycation activity
same,cytotoxicity,[1],21.1%
"O=[N+]([O-])c1ccc2nc(-c3ccc(O)c(O)c3)[nH]c2c1 [Compound 6, 4-(6-Nitro-1H-benzimidazol-2-yl)-1,2-benzenediol]",anti-glycation activity (in words),[2],significant anti-glycation activity
same,cytotoxicity,[1],3.4%
